In ChEMBL document CHEMBL1144769 (J Med Chem, 2008):
The source made the active and inactive calls. The calls are words filed in the database; no cut-off is given here.

Assays:
[1] = target: T1, Prostaglandin G/H synthase 1 (Homo sapiens, UniProt P23219); test: Inhibition of COX1 at 100 uM
[2] = target: T1, Prostaglandin G/H synthase 1; test: Inhibition of COX1
[3] = target: T2, Prostaglandin G/H synthase 2 (Homo sapiens, UniProt P35354); test: Inhibition of COX2
T2 sequence (P35354 whole entry): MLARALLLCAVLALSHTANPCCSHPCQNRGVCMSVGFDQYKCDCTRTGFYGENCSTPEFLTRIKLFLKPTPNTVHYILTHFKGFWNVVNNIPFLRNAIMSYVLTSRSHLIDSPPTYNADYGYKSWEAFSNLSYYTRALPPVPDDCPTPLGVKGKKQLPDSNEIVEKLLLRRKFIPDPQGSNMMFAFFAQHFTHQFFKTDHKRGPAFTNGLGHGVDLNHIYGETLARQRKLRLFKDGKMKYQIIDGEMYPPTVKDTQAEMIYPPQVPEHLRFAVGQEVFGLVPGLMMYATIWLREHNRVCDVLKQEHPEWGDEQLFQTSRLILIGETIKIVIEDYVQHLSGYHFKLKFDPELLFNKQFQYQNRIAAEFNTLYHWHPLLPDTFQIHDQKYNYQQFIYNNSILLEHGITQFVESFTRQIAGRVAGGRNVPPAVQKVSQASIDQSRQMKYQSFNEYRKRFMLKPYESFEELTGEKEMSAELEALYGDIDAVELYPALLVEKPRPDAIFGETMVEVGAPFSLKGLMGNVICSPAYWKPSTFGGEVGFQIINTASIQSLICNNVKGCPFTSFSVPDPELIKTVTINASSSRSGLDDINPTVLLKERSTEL

[4] = Cmax in Sprague-Dawley rat at 30 mg/kg, po; format: ADME, organism-based; parameters: dose 30 mg/kg, route oral; conditions: in vivo
Mus musculus [5] = test: Acute toxicity in ICR mouse upto 300 mg/kg, po upto 14 days; format: organism-based; parameters: dose 300 mg/kg, route oral; conditions: in vivo, 336 h
Rattus norvegicus [6] = test: Induction of gastric ulcer formation in Sprague-Dawley rat at 30 mg/kg, po administered daily for 1 week; format: organism-based, Stomach; parameters: dose 30 mg/kg, route oral; conditions: in vivo, 168 h
Mus musculus [7] = test: Analgesic activity in ICR mouse assessed as reduction in number of acetic acid-induced writhing at 10 mg/kg, po after 10 mins; format: functional, organism-based; parameters: dose 10 mg/kg
Mus musculus [8] = test: Analgesic activity in ICR mouse assessed as reduction in number of acetic acid-induced writhing at 30 mg/kg, po after 10 mins; format: functional, organism-based; parameters: dose 30 mg/kg
Rattus norvegicus [9] = test: Analgesic activity in Sprague-Dawley rat assessed as reduction in formalin-induced pain at 30 mg/kg, po; format: functional, organism-based; parameters: dose 30 mg/kg
Rattus norvegicus [10] = test: Induction of gastric ulcer formation in Sprague-Dawley rat at 30 mg/kg, po after 5 hrs; format: organism-based, Stomach; parameters: dose 30 mg/kg, route oral; conditions: in vivo
Rattus norvegicus [11] = test: Induction of gastric ulcer formation in Sprague-Dawley rat at 10 mg/kg, po after 5 hrs; format: organism-based, Stomach; parameters: dose 10 mg/kg, route oral; conditions: in vivo

T1 sequence (P23219 whole entry): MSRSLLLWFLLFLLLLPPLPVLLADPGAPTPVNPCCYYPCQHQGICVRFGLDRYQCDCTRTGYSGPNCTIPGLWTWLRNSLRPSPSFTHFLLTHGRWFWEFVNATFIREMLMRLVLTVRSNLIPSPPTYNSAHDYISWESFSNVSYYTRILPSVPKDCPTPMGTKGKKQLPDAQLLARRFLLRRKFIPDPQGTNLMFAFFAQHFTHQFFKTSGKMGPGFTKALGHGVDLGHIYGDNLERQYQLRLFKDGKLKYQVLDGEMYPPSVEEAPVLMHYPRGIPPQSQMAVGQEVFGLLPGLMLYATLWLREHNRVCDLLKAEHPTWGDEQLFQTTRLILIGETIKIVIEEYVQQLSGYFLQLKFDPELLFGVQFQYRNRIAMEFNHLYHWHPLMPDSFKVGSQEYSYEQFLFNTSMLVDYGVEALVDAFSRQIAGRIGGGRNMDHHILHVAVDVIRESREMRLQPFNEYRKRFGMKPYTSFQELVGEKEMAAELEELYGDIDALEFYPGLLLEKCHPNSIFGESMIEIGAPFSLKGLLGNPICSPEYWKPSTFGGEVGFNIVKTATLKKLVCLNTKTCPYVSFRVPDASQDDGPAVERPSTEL

Row | inhibition [1] [%] | IC50 [2] [µM] | IC50 [3] [µM] | Structure (SMILES) | also measured
1 | 57 | – | – | Cc1ccc(NC(=O)c2ccccc2N)cc1 | –
2 | – | > 100 | > 100 | Nc1ccnc(NC(=O)c2cccc(C(F)(F)F)c2)c1 | –
3 | 52 | – | – | Nc1ccccc1C(=O)Nc1ccc(Cl)cc1 | –
4 | 67 | – | – | Cc1cccc(NC(=O)c2ccccc2N)c1 | –
5 | – | 72 | > 100 | Nc1ccccc1NC(=O)c1cccc(C(F)(F)F)c1 | –
6 | 5 | – | – | CCN(C(=O)c1ccccc1N)c1ccccc1 | –
7 | – | 7.2 | > 100 | Nc1cccc(NC(=O)c2cccc(C(F)(F)F)c2)c1 | –
8 | 76 | 14 | > 100 | Nc1cccc(NC(=O)c2ccc(C(F)(F)F)cc2)c1 | –
9 | 23 | – | – | Cc1ccc(NC(=O)c2ccc(Cl)cc2)cc1 | –
10 | – | > 100 | > 100 | Nc1cccc(C(=O)Nc2cccc(C(F)(F)F)c2)c1 | –
11 | 31 | – | – | O=C(Nc1ccc(C(F)(F)F)cc1)c1ccccc1[N+](=O)[O-] | –
12 | – | > 100 | > 100 | Nc1ccc(C(=O)Nc2ccc(C(F)(F)F)cc2)nc1 | –
13 | – | > 100 | > 100 | Nc1cccnc1NC(=O)c1cccc(C(F)(F)F)c1 | –
14 | – | 62 | > 100 | Nc1ccc(NC(=O)c2cccc(C(F)(F)F)c2)cc1 | –
15 | – | > 100 | > 100 | Nc1cccnc1NC(=O)c1ccc(C(F)(F)F)cc1 | –
16 | 70 | 19 | > 100 | Nc1cccc(C(=O)Nc2ccc(C(F)(F)F)cc2)c1 | –
17 | – | > 100 | > 100 | Nc1ccc(NC(=O)c2ccccc2C(F)(F)F)cc1 | –
18 | 54 | – | – | Nc1ccc(NC(=O)c2ccccc2)cc1 | –
19 | – | 12 | > 100 | Nc1ccc(NC(=O)c2cccc(C(F)(F)F)c2)nc1 | –
20 | 13 | – | – | O=C(Nc1ccc(C(F)(F)F)cc1)c1cccc([N+](=O)[O-])c1 | –
21 | 32 | > 100 | > 100 | Nc1ccccc1C(=O)Nc1ccccc1C(F)(F)F | –
22 | 53 | – | – | Nc1ccc(C(=O)Nc2ccc(Cl)cc2)cc1 | –
23 | – | > 100 | > 100 | Nc1ccccc1NC(=O)c1ccccc1C(F)(F)F | –

Row | inhibition [1] [%] | IC50 [2] [µM] | IC50 [3] [µM] | Structure (SMILES) | also measured
24 | 90 | 10 | > 100 | Nc1ccccc1C(=O)Nc1cccc(C(F)(F)F)c1 | –
25 | – | – | – | CC(=O)Oc1ccccc1C(=O)O [ASPIRIN] | Activity (Rattus norvegicus [10]): Active
26 | – | > 100 | > 100 | Nc1cccc(C(=O)Nc2ccccc2C(F)(F)F)c1 | –
27 | – | – | – | COc1ccc2c(c1)c(CC(=O)O)c(C)n2C(=O)c1ccc(Cl)cc1 [INDOMETHACIN] | Activity (Rattus norvegicus [11]): Active; Activity (Mus musculus [7]): Active
28 | – | > 100 | > 100 | Nc1ccc(C(=O)Nc2ccccc2C(F)(F)F)cc1 | –
29 | – | > 100 | > 100 | Nc1ccc(C(=O)Nc2cccc(C(F)(F)F)c2)cc1 | –
30 | 53 | 88 | > 100 | Nc1ccccc1NC(=O)c1ccc(C(F)(F)F)cc1 | –
31 | 40 | – | – | Nc1ccc(C(=O)Nc2ccccc2)cc1 | –
32 | 53 | – | – | Cc1ccc(C(=O)Nc2ccc(N)cc2)cc1 | –
33 | – | 0.028 | 65 | COc1ccc(-c2nc(C(=O)N3CCN(C)CC3)sc2-c2ccc(OC)cc2)cc1 [FR-122047] | –
34 | 53 | – | – | Cc1ccccc1NC(=O)c1ccccc1N | –
35 | 49 | – | – | Nc1ccc(NC(=O)c2ccc(Cl)cc2)cc1 | –
36 | – | > 100 | > 100 | Nc1ccnc(NC(=O)c2ccc(C(F)(F)F)cc2)c1 | –
37 | 68 | 16 | > 100 | Nc1ccccc1C(=O)Nc1ccc(C(F)(F)F)cc1 | –
38 | 23 | – | – | CCN(C(=O)c1ccccc1N)c1ccc(Cl)cc1 | –
39 | – | 94 | > 100 | Nc1cccc(NC(=O)c2ccccc2C(F)(F)F)c1 | –
40 | 56 | – | – | Cc1ccc(NC(=O)c2ccc(N)cc2)cc1 | –
41 | – | 10 | > 100 | Nc1ccc(C(=O)Nc2ccc(C(F)(F)F)cn2)cc1 | –
42 | 64 | – | – | Nc1ccccc1C(=O)Nc1ccccc1 | –
43 | 35 | – | – | COc1ccc(NC(=O)c2ccc(Cl)cc2)cc1 | –
44 | 63 | 29 | > 100 | Nc1ccc(NC(=O)c2ccc(C(F)(F)F)cc2)cc1 | –
45 | 71 | 30 | > 100 | Nc1ccc(C(=O)Nc2ccc(C(F)(F)F)cc2)cc1 | –

Row | Structure (SMILES) | inhibition [1] [%] | IC50 [2] [µM] | IC50 [3] [µM] | also measured
46 | O=C(Nc1ccc(C(F)(F)F)cc1)c1ccc([N+](=O)[O-])cc1 | 0 | – | – | –
47 | Nc1ccc(NC(=O)c2ccc(C(F)(F)F)cc2)nc1 | – | 0.8 | 210 | Cmax [4]: 12 µM; Activity (Mus musculus [5]): Non-toxic; Activity (Rattus norvegicus [6]): Not Active; Activity (Mus musculus [7]): Active; Activity (Mus musculus [8]): Active; Activity (Rattus norvegicus [9]): Active
